Values quoted from earlier work, collected in patent US9855513B2, “Method for producing concentrated aqueous solution of organic compound” (Kao Corporation, priority 2012, dated 2018).

Details: in a water of 100 g at 25° C.

solubility degree: ∞
Structure (SMILES): OCC(O)CO [glycerol]
